{"source": "PubChem BioAssay AID1195", "about": "(EPA DSSTox, 2008)", "test_system": "human maximum recommended daily dose, FDA database", "test": "DSSTox (FDAMDD) FDA Maximum (Recommended) Daily Dose Database", "settings": "active compounds read low", "outline": "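MRDD values come from clinical trials with daily oral dosing, usually for 3–12 months, for the average adult, in mg/day converted to mg/kg-bw/day assuming 60 kg. Antineoplastic mg/m2 doses are divided by 37. Activity score maps log10(1/MRDD mmol) onto 1–100.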", "key": {"[1]": {"settings": "TherapeuticCategory: antipsychotic"}, "[2]": {"settings": "TherapeuticCategory: antidepressant"}, "[3]": {"settings": "TherapeuticCategory: antibacterial"}, "[4]": {"settings": "TherapeuticCategory: diagnostic aid"}, "[5]": {"settings": "TherapeuticCategory: sedative, hypnotic"}}}
{"smiles": "Cc1cc2cc3c(C)cc(=O)oc3c(C)c2o1", "values": [{"measurement": "maximum recommended daily dose (mmol/kg-bw/day)", "setting": "TherapeuticCategory: pigmentation agent", "value": 0.000732}]}
{"smiles": "Cc1c(C(=O)O)c(O)cc2c1C(=O)c1c(O)c([C@@H]3O[C@H](CO)[C@@H](O)[C@H](O)[C@H]3O)c(O)c(O)c1C2=O", "values": [{"measurement": "maximum recommended daily dose (mmol/kg-bw/day)", "setting": "TherapeuticCategory: none", "value": 0.0169}]}
{"smiles": "NC(N)=NCCCC(N)C(=O)O", "note": "(configuration not stated)", "values": [{"measurement": "maximum recommended daily dose (mmol/kg-bw/day)", "setting": "TherapeuticCategory: ammonia detoxicant, diagnostic aid", "value": 2.87}]}
{"smiles": "CCC(C)C(C(=O)OC1CCN(C)CC1)c1ccccc1", "note": "(configuration not stated)", "values": [{"measurement": "maximum recommended daily dose (mmol/kg-bw/day)", "setting": "TherapeuticCategory: anticholinergic", "value": 0.00173}]}
{"smiles": "Oc1c(I)cc(Cl)c2cccnc12", "values": [{"measurement": "maximum recommended daily dose (mmol/kg-bw/day)", "setting": "TherapeuticCategory: topical anti infective, antiamebic", "value": 0.0818}]}
{"smiles": "Cc1ccc(C(=O)C(C)CN2CCCCC2)cc1", "note": "(configuration not stated)", "values": [{"measurement": "maximum recommended daily dose (mmol/kg-bw/day)", "setting": "TherapeuticCategory: skeletal muscle relaxant", "value": 0.0204}]}
{"smiles": "CC(=O)c1ccc2c(c1)N(CCCN1CCN(CCO)CC1)c1ccccc1S2", "values": [{"measurement": "maximum recommended daily dose (mmol/kg-bw/day)", "setting": "[1]", "value": 0.0243}]}
{"smiles": "NS(=O)(=O)c1cc2c(cc1Cl)NC(C1CC3C=CC1C3)NS2(=O)=O", "note": "(configuration not stated)", "values": [{"measurement": "maximum recommended daily dose (mmol/kg-bw/day)", "setting": "TherapeuticCategory: diuretic, antihypertensive", "value": 0.000256}]}
{"smiles": "Cc1cc2c(C(C)C)c(O)c(O)c(C=O)c2c(O)c1-c1c(C)cc2c(C(C)C)c(O)c(O)c(C=O)c2c1O", "values": [{"measurement": "maximum recommended daily dose (mmol/kg-bw/day)", "setting": "TherapeuticCategory: none", "value": 0.000642}]}
{"smiles": "CC(NC(C)(C)C)C(=O)c1cccc(Cl)c1", "note": "(configuration not stated)", "values": [{"measurement": "maximum recommended daily dose (mmol/kg-bw/day)", "setting": "[2]", "value": 0.0313}]}
{"smiles": "CC(C(=O)O)c1ccc2c(c1)Cc1cccnc1O2", "note": "(configuration not stated)", "values": [{"measurement": "maximum recommended daily dose (mmol/kg-bw/day)", "setting": "TherapeuticCategory: anti inflammatory", "value": 0.0147}]}
{"smiles": "CN[C@@H]1[C@@H](O)[C@@H](O[C@@H]2[C@@H](O)[C@H](O[C@H]3O[C@H](CN)CC[C@H]3N)[C@@H](N)C[C@H]2N)OC[C@]1(C)O", "values": [{"measurement": "maximum recommended daily dose (mmol/kg-bw/day)", "setting": "[3]", "value": 0.00667}]}
{"smiles": "COCC(=O)Nc1c(I)c(C(=O)NCC(O)CO)c(I)c(C(=O)N(C)CC(O)CO)c1I", "note": "(configuration not stated)", "values": [{"measurement": "maximum recommended daily dose (mmol/kg-bw/day)", "setting": "[4]", "value": 0.126}]}
{"smiles": "CCC(C)C(CC)C(=O)NC(N)=O", "note": "(configuration not stated)", "values": [{"measurement": "maximum recommended daily dose (mmol/kg-bw/day)", "setting": "TherapeuticCategory: hypnotic", "value": 0.0358}]}
{"smiles": "CCCOC(=O)Cn1cc(I)c(=O)c(I)c1", "values": [{"measurement": "maximum recommended daily dose (mmol/kg-bw/day)", "setting": "[4]", "value": 0.224}]}
{"smiles": "CC1C(c2ccccc2)OCCN1C", "note": "(configuration not stated)", "values": [{"measurement": "maximum recommended daily dose (mmol/kg-bw/day)", "setting": "TherapeuticCategory: anorexic", "value": 0.0183}]}
{"smiles": "Cc1onc(-c2c(Cl)cccc2Cl)c1C(=O)N[C@@H]1C(=O)N2[C@@H]1SC(C)(C)[C@@H]2C(=O)O", "values": [{"measurement": "maximum recommended daily dose (mmol/kg-bw/day)", "setting": "[3]", "value": 0.0355}]}
{"smiles": "Oc1ccc(Cl)cc1Cc1cc(Cl)ccc1O", "values": [{"measurement": "maximum recommended daily dose (mmol/kg-bw/day)", "setting": "TherapeuticCategory: anthelmintic", "value": 0.372}]}
{"smiles": "COc1cnc(NS(=O)(=O)c2ccc(N)cc2)nc1", "values": [{"measurement": "maximum recommended daily dose (mmol/kg-bw/day)", "setting": "[3]", "value": 0.0892}]}
{"smiles": "C=C1C[C@@H]2[C@H](CC[C@]3(C)C(=O)CC[C@@H]23)[C@@]2(C)C=CC(=O)C=C12", "values": [{"measurement": "maximum recommended daily dose (mmol/kg-bw/day)", "setting": "TherapeuticCategory: antineoplastic", "value": 0.00135}]}
{"smiles": "CCCC(=O)O[C@H]1[C@H](C)O[C@@H](O[C@H]2[C@H](N(C)C)[C@@H](O)[C@H](O[C@H]3[C@@H](CC=O)C[C@@H](C)[C@@H](O)/C=C/C=C/C[C@@H](C)OC(=O)C[C@@H](O)[C@@H]3OC)O[C@@H]2C)C[C@@]1(C)OC(=O)CC", "values": [{"measurement": "maximum recommended daily dose (mmol/kg-bw/day)", "setting": "[3]", "value": 0.0242}]}
{"smiles": "CC(C)(O)c1ccccc1CC[C@@H](SCC1(CC(=O)O)CC1)c1cccc(/C=C/c2ccc3ccc(Cl)cc3n2)c1", "values": [{"measurement": "maximum recommended daily dose (mmol/kg-bw/day)", "setting": "TherapeuticCategory: antiasthmatic", "value": 0.000285}]}
{"smiles": "O=C(O)c1cc(N=Nc2ccc(S(=O)(=O)Nc3ccccn3)cc2)ccc1O", "values": [{"measurement": "maximum recommended daily dose (mmol/kg-bw/day)", "setting": "TherapeuticCategory: treatment of ulcerative colitis and Crohn's disease", "value": 0.334}]}
{"smiles": "O=c1[nH]c2ccccc2n1C1CCN(CCCC(c2ccc(F)cc2)c2ccc(F)cc2)CC1", "values": [{"measurement": "maximum recommended daily dose (mmol/kg-bw/day)", "setting": "[1]", "value": 0.000362}]}
{"smiles": "Cc1cc(=O)n(-c2ccccc2)n1C", "note": "(tested in a mixture with another compound)", "values": [{"measurement": "maximum recommended daily dose (mmol/kg-bw/day)", "setting": "[5]", "value": 0.0626}]}
{"smiles": "NNC(=O)c1ccncc1", "values": [{"measurement": "maximum recommended daily dose (mmol/kg-bw/day)", "setting": "[3]", "value": 0.0729}]}
{"smiles": "CCN(CC)CCOC(=O)C(O)(c1ccccc1)c1ccccc1", "values": [{"measurement": "maximum recommended daily dose (mmol/kg-bw/day)", "setting": "TherapeuticCategory: antidepressant, anticholinergic", "value": 0.000458}]}
{"smiles": "CC(=O)c1ccc2c(c1)N(CCCN(C)C)c1ccccc1S2", "values": [{"measurement": "maximum recommended daily dose (mmol/kg-bw/day)", "setting": "TherapeuticCategory: tranquilizer", "value": 0.000459}]}
{"smiles": "CCOC(=O)CCCCCCCCC(C)c1ccc(I)cc1", "note": "(configuration not stated)", "values": [{"measurement": "maximum recommended daily dose (mmol/kg-bw/day)", "setting": "[4]", "value": 0.3}]}
{"smiles": "CN(C)CCCN1c2ccccc2CCc2ccc(Cl)cc21", "values": [{"measurement": "maximum recommended daily dose (mmol/kg-bw/day)", "setting": "[2]", "value": 0.0132}]}
{"smiles": "CNC[C@H](O)c1cccc(O)c1", "values": [{"measurement": "maximum recommended daily dose (mmol/kg-bw/day)", "setting": "TherapeuticCategory: mydriatic, decongestant", "value": 0.00498}]}
{"smiles": "CC(CN(C)C)CN1c2ccccc2S(=O)(=O)c2ccccc21", "note": "(configuration not stated)", "values": [{"measurement": "maximum recommended daily dose (mmol/kg-bw/day)", "setting": "TherapeuticCategory: antihistaminic", "value": 0.00202}]}
{"smiles": "NCCNCCNCCN", "values": [{"measurement": "maximum recommended daily dose (mmol/kg-bw/day)", "setting": "TherapeuticCategory: chelating agent, treatmemt of Wilson's disease", "value": 0.228}]}
{"smiles": "O=C(O)C1CSCN1", "note": "(configuration not stated)", "values": [{"measurement": "maximum recommended daily dose (mmol/kg-bw/day)", "setting": "TherapeuticCategory: choleretic", "value": 0.0751}]}
{"smiles": "C#CC1(OC(N)=O)CCCCC1", "values": [{"measurement": "maximum recommended daily dose (mmol/kg-bw/day)", "setting": "[5]", "value": 0.0999}]}
{"smiles": "Cc1[nH]c(=O)c(C#N)cc1-c1ccncc1", "values": [{"measurement": "maximum recommended daily dose (mmol/kg-bw/day)", "setting": "TherapeuticCategory: cardiotonic", "value": 0.000237}]}
{"smiles": "NS(=O)(=O)c1cc2c(cc1Cl)NC=NS2(=O)=O", "values": [{"measurement": "maximum recommended daily dose (mmol/kg-bw/day)", "setting": "TherapeuticCategory: diuretic", "value": 0.113}]}
